The source of these data is patent US20210059933A1, “HYDROGELS AS ORAL DELIVERY DOSAGE FORMS, METHODS OF MAKING AND USING SAME” (priority 2019, published 2021).

Some results are limits rather than exact numbers.

Data set [1] is described as follows: Release of drug from drug-loaded disintegrating hydrogel into simulated gastric fluid, supersaturation by UV-vis. To be noted: 2 hours, 150 rpm, hydrogel from 25% by volume acetal cross-linker, drug loading as in % wt drug. As to the method:
A disintegrating hydrogel is first formed from 0.125 mL of a solution of dimethylformamide containing 25% by volume of the cross-linker triethylene glycol di[ethyl-1-methacryloyloxy poly(ethylene glycol) acetal] and 5% by volume of the photoinitiator 2-hydroxy-2-methylpropiophenone then purified by washing several times in ethanol. This disintegrating hydrogel is then transferred to the same solvent used to maximize the dissolution of the active pharmaceutical ingredient of interest. The hydrogel is transferred to a silicone mold and heated for a minimum amount of time to evaporate a majority of the solvent soaked into the hydrogel pores. Then about 0.1 mL of a solution of the active pharmaceutical ingredient solubilized in the preferred solvent is added to the silicone mold containing the hydrogel, which is allowed to swell in order to absorb the solution. Once absorbed, the solvent is removed in a vacuum oven in order to induce the crystallization of the active pharmaceutical ingredient in the hydrogel pores. The mass of the active pharmaceutical ingredient contained in the disintegrating hydrogel is determined experimentally then normalized by the combined mass of both components to quantify the weight fraction of the active pharmaceutical ingredient.
The hydrogel is added to the vial and allowed to dissolve over the course of 2 hours. The presence of the active pharmaceutical ingredient in the aqueous solution is monitored by ultraviolet-visible spectrometry to quantify the concentration relative to the inherent solubility of the active pharmaceutical ingredient without a hydrogel present. The ratio of the solubility achieved upon release from disintegrating hydrogels to the solubility achieved upon dissolution without disintegrating hydrogels is the supersaturation.

The conditions of data set [2]: drug by itself; cited from earlier work.
The conditions of data set [3]: lipophilic partition coefficient of the drug; cited from earlier work.
The nature of data set [4]: Dissolution of drug encapsulated in acid-hydrolysable hydrogels in 0.1M HCl solution (pH=1). It counts as physicochemical. Particulars: immediate release acid-hydrolysable hydrogels. From the text:
FIG. 3 is a dissolution profile of vitamin E (tocopherol) encapsulated at various drug loading levels in hydrogels composed of 25% by volume acetal cross-linker into a 0.1M HCl solution (pH=1).
The hydrogel labelled acetal hydrogel [w/ 10% surfactant] {w/ 15% surfactant} were synthesized by polymerizing a pre-cursor solution containing 25% [20%] {20%} by volume of the triethylene glycol di[ethyl-1-methacryloyloxy poly(ethylene glycol) acetal] cross-linker, 0% [3.9%] {3.9%} by volume of methyl methacrylate, 0% [6.1%] {6.1%} by volume of dimethylaminoethyl methacrylate, and 0% [10%] {15%} by volume of a hydrolytically hydrolysable surfactant monomer: acetaldehyde-(stearyl PEG-20 ether)-(acrylate ethylene glycol) acetal. Each drug substance is loaded into the pores of the hydrogel by first dissolving in ethanol and adding the organic solution into a silicone mold containing the pre-formed and washed hydrogel followed by evaporation of the solvent. Sufficient drug substance solution is added to the mold to reach a range of drug loading values.

Turning to `COC1=C(OC)C(=O)C(C/C=C(\C)CC/C=C(\C)CC/C=C(\C)CC/C=C(\C)CC/C=C(\C)CC/C=C(\C)CC/C=C(\C)CC/C=C(\C)CC/C=C(\C)CCC=C(C)C)=C(C)C1=O` [Coenzyme Q10], in data set [1], the “X_sat (supersaturation: ratio of solubility achieved upon release from disintegrating hydrogels to solubility without hydrogels)” value was 69.1. In addition, the “C_s (aqueous solubility)” value in data set [2] is 0.2 µg/mL. Also, the “log P” value in data set [3] is recorded as 9.9. Take `CCCSc1ccc2nc(NC(=O)OC)[nH]c2c1` [albendazole]: the “X_sat (supersaturation: ratio of solubility achieved upon release from disintegrating hydrogels to solubility without hydrogels)” value in data set [1] was 2.01. Further, in data set [2], the “C_s (aqueous solubility)” value is 22.8 µg/mL. The “log P” value in data set [3] is 2.7.

As for `C[C@@H]1[C@H](O)[C@@H](C)/C=C/C=C/C=C/C=C/C=C/C=C/C=C/[C@H](O[C@@H]2O[C@H](C)[C@@H](O)[C@H](N)[C@@H]2O)C[C@@H]2O[C@](O)(C[C@@H](O)C[C@@H](O)[C@H](O)CC[C@@H](O)C[C@@H](O)CC(=O)O[C@H]1C)C[C@H](O)[C@H]2C(=O)O` [amphotericin b], the “X_sat (supersaturation: ratio of solubility achieved upon release from disintegrating hydrogels to solubility without hydrogels)” value in data set [1] is recorded as 13.8. For the same molecule, the “C_s (aqueous solubility)” value in data set [2] was 82 µg/mL. In addition, the “log P” value in data set [3] was 0.8. For the molecule `C=C(C)[C@@H]1CCC(C)=C[C@H]1c1c(O)cc(CCCCC)cc1O` [cannabidiol (CBD), cannabidiol], the “X_sat (supersaturation: ratio of solubility achieved upon release from disintegrating hydrogels to solubility without hydrogels)” value in data set [1] was 22.3. Regarding `CC(C)/N=c1\cc2n(-c3ccc(Cl)cc3)c3ccccc3nc-2cc1Nc1ccc(Cl)cc1` [clofazimine], the “C_s (aqueous solubility)” value in data set [2] is 0.23 µg/mL. Regarding `CC/C=C\C/C=C\C/C=C\C/C=C\C/C=C\CCCC(=O)O` [eicosapentaenoic acid], the “C_s (aqueous solubility)” value in data set [2] is 0.29 µg/mL. Moreover, the “log P” value in data set [3] is listed as 6.1. On to `CCCCN(CCCC)CC(O)c1cc(Cl)cc2c1-c1ccc(Cl)cc1/C2=C/c1ccc(Cl)cc1` (centres unmarked) [lumefantrine], for which, in data set [2], the “C_s (aqueous solubility)” value is 0.04 µg/mL. In data set [3], the “log P” value is 8.34. In the case of `C[C@H]1C[C@@H]2[C@H]([C@@H](O)C[C@@]3(C)[C@H]2CC[C@]3(O)C(=O)CO)[C@@]2(C)C=CC(=O)C=C12` [methylprednisolone], the “log P” value in data set [3] was 1.53. For `Cc1cn(-c2cc(NC(=O)c3ccc(C)c(Nc4nccc(-c5cccnc5)n4)c3)cc(C(F)(F)F)c2)cn1` [nilotinib], the “C_s (aqueous solubility)” value in data set [2] was 2.01 µg/mL. Further, the lipophilicity (log P) in data set [3] was 4.51. With `Cc1ccc(Nc2nccc(N(C)c3ccc4c(C)n(C)nc4c3)n2)cc1S(N)(=O)=O` [pazopanib], in data set [2], the “C_s (aqueous solubility)” value is 43.3 µg/mL. Moreover, the “log P” value in data set [3] is listed as 3.59. In the case of `CC(=O)[C@H]1CC[C@H]2[C@@H]3CCC4=CC(=O)CC[C@]4(C)[C@H]3CC[C@]12C` [progesterone], in data set [4], the “supersaturation level of final concentration” value is ≤ 11 times the intrinsic solubility. Also, in data set [2], the “C_s (aqueous solubility)” value is 5.5 µg/mL. In the case of tocopherol [tocopherol (vitamin E)], the “supersaturation level of final concentration” value in data set [4] is reported as “up to 74 times the intrinsic solubility”.

One may read the log P as the decadic logarithm of the partition coefficient of the neutral form, usually between octanol and water.
